Reference: BigSolDB 2.1

Settings: in water

NCCS(=O)(=O)O
Settings	solubility (mole fraction)
278.05 K	0.00796
281.25 K	0.00932
288.75 K	0.0119
289.85 K	0.0128
298.15 K	0.017
305.35 K	0.0203
308.25 K	0.0213
310.95 K	0.0233
314.85 K	0.0261
318.35 K	0.0291
321.55 K	0.0321
331.75 K	0.0403
340.95 K	0.0477
345.15 K	0.0526
350.25 K	0.0585
353.55 K	0.0646
